Measurements from PubChem BioAssay AID179 (DTP/NCI, 2004).
“And” between values parts separate entries of the source, which are not always exact repeats. Identical values can stand only once. The source made the active and inactive calls.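 Rule for the calls: active = compounds giving half or more protection of infected cells from virus-caused growth loss, again on retest; inactive = the rest.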 Where a SMILES comes first, the peptide text is derived from it. The star is where a group is joined. Cbz = O=C(OCc1ccccc1)*; Boc = CC(C)(C)OC(=O)*; OBn = c1ccc(CO*)cc1

Test system: CEM cells HIV-1 protection, formazan growth assay
Test: NCI AIDS Antiviral Assay
Conditions: for IC50: measured here: growth of uninfected CEM cells
Procedure, shortened: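 Five concentrations of each compound were applied to infected and uninfected human CEM cells. Protection from HIV-1 was judged from growth measured with a soluble formazan assay.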

O=[N+]([O-])c1ccccc1S(=O)(=O)c1cccc2c1NCCC2
EC50: 3.47 µM | IC50: 38 µM

Cc1cc2c(cc1Cl)SSc1cc(Cl)c(C)cc1S(=O)(=O)Nc1nc(N)nn1C(O)n1nc(N)nc1NS2(=O)=O
EC50: 89.1 µM | IC50: > 100 µM

CC(=O)OCC1OC(n2c3c(cc(C#N)c2=S)CCCCC3)C(OC(C)=O)C(OC(C)=O)C1OC(C)=O (stereo unspecified)
EC50: > 200 µM | IC50: > 200 µM

C/C(C(=O)O)=C(\C)c1ccccc1
EC50: > 200 µM | IC50: > 200 µM

COc1ccc(I)c(CCC(CO)C2=CCC3(CC2)OCCO3)c1 (stereo unspecified)
EC50: > 16.2 µM | IC50: > 16.2 µM

COC(=O)C(=O)C(CC(=O)Nc1cc(Cl)ccc1Cl)C(=O)OC (stereo unspecified)
EC50: > 7.59 µM | IC50: > 7.59 µM

COC(=O)C(C)S(=O)(=O)O (stereo unspecified)
EC50: > 200 µM | IC50: > 200 µM

CCCCNC(=O)/C(=C/c1cccc(N(CC)CC)c1)NC(=O)c1ccccc1
EC50: > 200 µM | IC50: 25.1 µM

CCc1cccc(C(C)CC)c1N=C(NC(=O)c1ccccc1C(=O)NC(=Nc1c(CC)cccc1C(C)CC)SC)SC (stereo unspecified)
EC50: > 56.2 µM | IC50: > 56.2 µM

O=C(Nc1nc(C23CC4CC(CC(C4)C2)C3)cs1)c1c(O)c2ccccc2[nH]c1=O
EC50: > 200 µM | IC50: > 200 µM

CCC1OC2C(CC=C(C)C)=C3OC(C)(O)C(C)(CC)C(OC(=O)c4ccccc4)C3=C3OC(=O)C=C1C32 (stereo unspecified)
EC50: > 200 µM | IC50: 18.6 µM

CC1(S)CC2C(CC1Sc1ccccc1)C2(C)C (stereo unspecified)
EC50: > 25.7 µM | IC50: > 25.7 µM

[N-]=[N+]=NC1=C(N=[N+]=[N-])c2cccc3cccc(c23)C1=O
outcome: inactive

C=CCCC(=O)CC(O)(C(F)(F)F)C(F)(F)F
outcome: inactive

O=[N+]([O-])C(/C(Cl)=C(\Cl)Br)=C(/Cl)SCc1ccccc1
EC50: > 200 µM | IC50: 1.78 µM

COc1cc2nncc(SCc3ccc(Cl)cc3Cl)c2cc1OC
EC50: > 56.2 µM | IC50: 52.5 µM

CN1c2ccccc2C2=C(C3=C(CS2)C(=O)CCS3)S1(=O)=O
EC50: > 38.9 µM | IC50: > 38.9 µM

COC(=O)C1c2c(c3ccccc3n2C(=O)OC)CCN2CCC1C(S(=O)(=O)c1ccccc1)C2=O (stereo unspecified)
EC50: 363 µM | IC50: 447 µM

O=C1N[C@@H]([C@H]2CC[C@H](Cl)CN2)C(=O)N[C@H]1[C@H]1CC[C@H](Cl)CN1
EC50: > 5.89 µM | IC50: 0.0141 µM

Cc1ccc(-n2[nH]nc(C(N)=O)c2=O)cc1
EC50: > 200 µM | IC50: > 200 µM

O=c1oc2c(ccc3nc(-c4ccccc4)sc32)c(N2CCOCC2)c1Cl
outcome: inactive

CC(C)(C)OC(=O)CC(NC(=O)OC(C)(C)C)C(=O)Oc1ccc([N+](=O)[O-])cc1 (stereo unspecified)
EC50: > 200 µM | IC50: > 200 µM

O=C(O)CC[P+](c1ccccc1)(c1ccccc1)c1ccccc1
EC50: > 200 µM | IC50: 21.9 µM and > 200 µM

COc1cccc(C=C2N=C(C)N(n3c(-c4ccccc4)nc4ccccc4c3=O)C2=O)c1
EC50: > 200 µM | IC50: 72.4 µM

CC1=C(C)C(=O)C(C2=CC(=O)c3ccccc3C2=O)=C(C2=CC(=O)c3ccccc3C2=O)C1=O
EC50: > 200 µM | IC50: 3.39 µM

N#C/C(=C1\N=C(c2ccccc2O)Oc2ccccc21)c1ccc([N+](=O)[O-])cc1
EC50: > 100 µM | IC50: > 100 µM

C/C=C/C=Nc1c(C#N)c2n(c1C(=O)Nc1ccccc1)CCC2
EC50: > 100 µM | IC50: > 100 µM

C=CCN(N=O)C(=O)ON1C(=O)CCC1=O
EC50: > 1100 µM | IC50: 275 µM

COc1ccc(CC2C(=O)NC(=O)NC2=O)cc1OCc1ccccc1
outcome: inactive

NC(=S)Nc1[nH]c(=S)nc2[nH]ccc12
EC50: > 91.2 µM | IC50: 83.2 µM

O=S(Cc1ccccc1)c1ccccc1Cn1cccc1 (stereo unspecified)
EC50: > 200 µM | IC50: 158 µM

CC(=O)N1N=C(c2ccc(N=Nc3c(C)nn(-c4ccccc4)c3C)cc2)OC1c1ccc(Cl)cc1 (stereo unspecified)
EC50: > 18.6 µM | IC50: > 18.6 µM

Nc1c(C(=O)Nc2ccc(C3=NCCN3)cc2)cccc1C(=O)Nc1ccc(C2=NCCN2)cc1
EC50: > 110 µM | IC50: 67.6 µM

C(=C\c1c[nH]c2ccccc12)/c1ccc2ccccc2n1
EC50: 0.0631 µM | IC50: 16.6 µM

O=c1oc2ccccc2c(O)c1C(c1ccc2c(c1)OCO2)N1CCOCC1 (stereo unspecified)
EC50: > 200 µM | IC50: > 100 µM

CCC[CH2][Sn]([CH2]CCC)([O]C(=O)c1cc(OC)c(OC)c(OC)c1)[O]C(=O)c1cc(OC)c(OC)c(OC)c1
EC50: > 11 µM | IC50: 1.45 µM

COc1ccc(N2C(=O)C3c4[nH]c5cc(Cl)ccc5c4C4CCC(C(C)(C)C)CC4C3C2=O)cc1 (stereo unspecified)
EC50: > 200 µM | IC50: 91.2 µM

O=C1CCC(c2ccccc2)C(O)(C(=O)O)C1 (stereo unspecified)
EC50: > 389 µM | IC50: > 389 µM

O=C(Nc1ccc(C2=NCC(O)CN2)cc1)c1ccc(C(=O)Nc2ccc(C3=NCC(O)CN3)cc2)cc1 (stereo unspecified)
EC50: 12.9 µM | IC50: > 200 µM

CCOP(=O)(OCC)C(c1ccccc1)N(C(=O)NC(F)(F)F)c1ccc(C)cc1 (stereo unspecified)
EC50: > 200 µM | IC50: > 200 µM

CCOC(=O)c1ccc2c(=O)n3c(C(=O)OCC)ccc3c(=O)n12
EC50: 162 µM | IC50: > 200 µM

O=C(OC1=C(OC(=O)c2ccc(N=Nc3ccccc3)cc2)c2ccccc21)c1ccc(N=Nc2ccccc2)cc1
EC50: > 200 µM | IC50: > 200 µM

NC(N)=Nc1ccc2oc(=O)ccc2c1
EC50: > 120 µM | IC50: > 120 µM

Cc1cccnc1NC(=S)Nc1ccccc1Cl
EC50: > 200 µM | IC50: 0.813 µM

CC(=O)OC1C(O[C@H]2CC[C@]34O[C@]35CC[C@]3(C)C(C6(C)CC[C@@H](C(C)(C)O)O6)[C@@H](O)CC3(C)[C@@H]5CC(OC3OC(CO)C(O)C(O)C3O)C4C2(C)C)OCC(O)C1O (stereo partly specified)
EC50: 67.6 µM | IC50: 302 µM

O=S(=O)(O)c1ccc(N=Nc2ccc(N=Nc3cccc4ccccc34)c(S(=O)(=O)O)c2)cc1
EC50: > 50.1 µM | IC50: > 50.1 µM

CCOc1ccccc1N=C(NC(=O)CC)SC
EC50: > 18.2 µM | IC50: > 18.2 µM

CCCCC(C(=O)CCC(=O)Nc1ccc(Cl)c(Cl)c1)C(=O)C(C)C (stereo unspecified)
EC50: > 324 µM | IC50: 275 µM

C#CCN1C(=O)c2ccccc2S1(=O)=O
EC50: > 200 µM | IC50: > 200 µM

COc1cc(C2C(Cl)C(=O)N2NC(=O)c2ccc(NC(C)=O)cc2)ccc1O (stereo unspecified)
EC50: > 200 µM | IC50: > 200 µM

CCOC(=O)Cn1c(=O)c2nc(SC)sc2n(-c2ccccc2)c1=S
EC50: > 200 µM | IC50: > 200 µM

COC(=O)C(NC(=O)C(C)NC(=O)C1CCCN1C(=O)CNC(=O)C(CO)NC(=O)C(NC(=O)OCc1ccccc1)C(C)O)C(C)O (stereo unspecified) (Cbz-TSGPAT-OMe; configuration not given here)
EC50: > 363 µM | IC50: > 363 µM

COC(=O)CC(C(C(=O)OC)C(=O)OC)N1C(=O)OC(c2ccccc2)C1c1ccccc1 (stereo unspecified)
EC50: 37.2 µM | IC50: 74.1 µM

CN1C(=O)CC(CC(=O)C2CCCCC2=O)CC1=O (stereo unspecified)
EC50: > 200 µM | IC50: > 200 µM

Brc1cccc(-c2nc3ccccc3[nH]2)c1
EC50: > 132 µM | IC50: 87.1 µM

O=[N+]([O-])c1ccc(N=P(c2ccccc2)(c2ccccc2)c2ccccc2)n2nnnc12
outcome: inactive

C/C(=N\NC(=S)N1CC2CCC(CC2)C1)c1nccs1
EC50: > 115 µM | IC50: 0.363 µM

COC(=O)C1(NC(=O)C(Cc2ccccc2)N(C(=O)OC(C)(C)C)C(=O)OC(C)(C)C)CCCC1 (stereo unspecified)
EC50: > 200 µM | IC50: 110 µM

O=C1NN=C2CCCCCCC12Cl (stereo unspecified)
EC50: > 1050 µM | IC50: 158 µM

Oc1ccc(C[C@@H]2CN[C@H](Cc3ccc(O)c(Br)c3)CN2)cc1
EC50: > 200 µM | IC50: > 200 µM

[B]C(=O)NC(CC(C)C)C(=O)NCC(=O)NC1c2ccsc2C(=O)C1O (stereo unspecified) (tested in a mixture with another compound)
EC50: > 200 µM | IC50: > 200 µM

Cc1ccc(S(=O)(=O)S/C(=N\c2ccccn2)Nc2ccccn2)cc1
EC50: > 324 µM | IC50: 83.2 µM

Nc1ncnc2c1ncn2C1SC(CO)C(O)C1O (stereo unspecified)
EC50: 45.7 µM | IC50: 148 µM

CCOC(=O)C1CCC(=O)N1C(=O)c1ccccc1 (stereo unspecified)
EC50: > 200 µM | IC50: > 200 µM

CC(NC(=O)/C(=C/c1ccccc1O)NC(=O)c1ccccc1)C(=O)O (stereo unspecified)
EC50: > 200 µM | IC50: > 200 µM

CC(=O)c1c(-c2ccccc2)c(-c2ccc(OCCN(C)C)cc2)n2ccccc12
EC50: > 200 µM | IC50: 7.59 µM

Cc1cccc(NC(=O)CSc2nnc(-c3ccc(N=Cc4ccc(Cl)cc4)cc3)o2)c1
EC50: > 21.4 µM | IC50: > 21.4 µM

CC(=O)C(=Cc1ccc(-c2ccccc2)cc1)C(C)=O
EC50: > 19.5 µM | IC50: > 19.5 µM

COc1ccccc1NC(=S)NN=C(C)c1cccc(C(C)=NNC(=S)Nc2ccccc2OC)n1
EC50: > 200 µM | IC50: 34.7 µM

CCc1cc(Cc2ccc(C)c(NC(=O)C(=O)C3C(=O)NC(=O)NC3=O)c2CC)cc(C)c1NC(=O)C(=O)C1C(=O)NC(=O)NC1=O
EC50: > 77.6 µM | IC50: > 77.6 µM

CN1CC(=O)NC2C(=CN(Cc3ccccc3)c3ccccc32)C1=O (stereo unspecified)
EC50: > 200 µM | IC50: > 200 µM

Cc1cccc(NC(=O)/C(=N\N)C(c2cnc3ccc([N+](=O)[O-])cc3n2)[N+](=O)[O-])c1C (stereo unspecified)
EC50: > 85.1 µM | IC50: 66.1 µM

CCOc1ccc(N=Nc2ccc3oc(=O)c(/C(C)=N/NC(=O)CC(=O)Nc4cccc(OC)c4)cc3c2)cc1
EC50: > 13.2 µM | IC50: > 13.2 µM

NC(Cc1ccc(OCc2ccccc2)cn1)C(=O)O (stereo unspecified)
EC50: > 200 µM | IC50: > 200 µM

O=C1CN(CCO)CC(=O)N2Cc3ccccc3CN12
outcome: inactive

COc1ccc2c(c1)CN([C@@H](C)[C@H]1CC[C@H]3[C@@H]4CC[C@H]5C[C@@H](O)CC[C@]5(C)[C@H]4CC[C@]13C)CO2
EC50: > 61.7 µM | IC50: 3.16 µM

Cc1ccc(S(=O)(=O)OC(c2ccccc2)c2ccccc2)cc1
EC50: > 15.5 µM | IC50: 10.5 µM

CC(C)CC(NC(=O)OC(C)(C)C)C(=O)NC(CCC(=O)OCc1ccccc1)C(N)=O (stereo not drawn) (Boc-Leu-Glu(OBn)-NH2; configuration not given here)
EC50: > 200 µM | IC50: 191 µM

O=C(O)Cc1ccc(N2N=C(c3ccccc3)CC2=O)cc1
EC50: > 200 µM | IC50: > 200 µM

CCc1ccc(Nc2cc(=O)n(C)c(SCc3ccccc3)n2)cc1
EC50: > 200 µM | IC50: > 200 µM

Clc1ccc(-c2c(C3=NCCN3)nnn2-c2ccc(Cl)cc2)cc1
EC50: > 138 µM | IC50: 115 µM
